Patent US11331364B2, “Use for JNK inhibitor molecules for treatment of various diseases” (Xigen Inflammation Ltd., priority 2014, dated 2022)
Square brackets hold non-standard residues; d marks the D form. Peptide text beside a SMILES is read from it.

Key:
[1] = target: T1, hJNK1 (Homo sapiens, UniProt P45983); assay: hJNK1 | IC50; settings: read-out: hJNK1 | IC50
T1 construct: His; purchased Upstate 14-327
Text: (§1) Table printed on a drawing sheet, Fig. 4
Head of the field: hJNK1 | IC50
(§2) The patent's description of the figure: FIG. 4: Table illustrating the inhibitory efficacy of several JNK inhibitors according to the present invention, which are fusion proteins of a JNK inhibitory (poly-)peptide sequence and a transporter sequence. Given are the IC50 values in the nM range, the respective standard error of the mean (SEM) and the number of experiments performed (n).
(§3) First copying reader's note: The sheet prints no unit for IC50 (the description says nM range); decimal commas are used, except for three IC50 cells printed with a point (3820.81, 5340.33, 8130.86).
Where the first naming reader finds the target: head: hJNK1 | IC50

[2] = target: hJNK2 (Homo sapiens, UniProt P45984); assay: hJNK2 | IC50; settings: read-out: hJNK2 | IC50
Text: as §1
Head of the field: hJNK2 | IC50
as §2, §3
Where the first naming reader finds the target: head: hJNK2 | IC50

[3] = target: hJNK3 (Homo sapiens, UniProt P53779); assay: hJNK3 | IC50; settings: read-out: hJNK3 | IC50
Text: as §1
Head of the field: hJNK3 | IC50
as §2, §3
Where the first naming reader finds the target: head: hJNK3 | IC50

T1 sequence (P45983 whole entry, looked up): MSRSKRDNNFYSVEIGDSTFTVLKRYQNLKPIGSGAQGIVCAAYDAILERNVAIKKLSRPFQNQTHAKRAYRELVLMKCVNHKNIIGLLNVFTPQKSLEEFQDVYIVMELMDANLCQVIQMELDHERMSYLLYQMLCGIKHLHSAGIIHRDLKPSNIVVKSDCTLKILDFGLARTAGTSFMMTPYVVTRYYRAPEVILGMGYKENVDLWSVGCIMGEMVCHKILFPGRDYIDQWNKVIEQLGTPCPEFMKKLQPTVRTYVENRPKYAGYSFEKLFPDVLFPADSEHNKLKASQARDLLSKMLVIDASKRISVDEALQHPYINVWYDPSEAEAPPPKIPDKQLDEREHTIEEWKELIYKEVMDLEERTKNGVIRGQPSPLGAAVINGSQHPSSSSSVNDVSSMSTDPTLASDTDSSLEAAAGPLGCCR
hJNK3, sequence (P53779 whole entry, looked up): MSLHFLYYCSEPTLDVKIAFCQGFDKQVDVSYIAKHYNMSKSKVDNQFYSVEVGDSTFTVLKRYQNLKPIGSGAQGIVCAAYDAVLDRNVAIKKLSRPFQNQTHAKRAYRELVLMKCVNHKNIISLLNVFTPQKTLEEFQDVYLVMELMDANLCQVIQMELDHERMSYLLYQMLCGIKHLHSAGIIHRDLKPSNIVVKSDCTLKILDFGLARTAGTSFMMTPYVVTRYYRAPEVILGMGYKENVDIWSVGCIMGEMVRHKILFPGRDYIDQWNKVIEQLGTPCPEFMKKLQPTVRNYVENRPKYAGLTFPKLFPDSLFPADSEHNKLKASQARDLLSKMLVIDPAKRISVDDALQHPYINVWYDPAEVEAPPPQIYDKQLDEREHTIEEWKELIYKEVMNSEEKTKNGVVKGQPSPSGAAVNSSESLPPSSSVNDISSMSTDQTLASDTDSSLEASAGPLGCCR
hJNK2, sequence (P45984 whole entry, looked up): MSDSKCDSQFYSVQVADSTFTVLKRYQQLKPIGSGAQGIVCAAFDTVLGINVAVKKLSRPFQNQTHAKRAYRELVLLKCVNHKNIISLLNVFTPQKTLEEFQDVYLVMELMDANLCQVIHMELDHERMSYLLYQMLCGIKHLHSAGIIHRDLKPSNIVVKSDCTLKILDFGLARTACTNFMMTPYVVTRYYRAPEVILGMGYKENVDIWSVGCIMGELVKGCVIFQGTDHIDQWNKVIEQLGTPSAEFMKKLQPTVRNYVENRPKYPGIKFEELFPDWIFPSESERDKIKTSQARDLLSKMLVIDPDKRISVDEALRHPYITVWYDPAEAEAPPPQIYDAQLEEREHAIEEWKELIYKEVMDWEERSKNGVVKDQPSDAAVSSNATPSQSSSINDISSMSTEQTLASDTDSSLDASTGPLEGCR

| SMILES | IC50 [1] | IC50 [2] | IC50 [3] |
| --- | --- | --- | --- |
| CC(C)C[C@H](NC(=O)[C@H](CC(=O)O)NC(=O)[C@@H](NC(=O)[C@@H]1CCCN1C(=O)[C@H](CCCNC(=N)N)NC(=O)[C@@H](CCCNC(=N)N)NC(=O)[C@H](CCCNC(=N)N)NC(=O)[C@H](CCCNC(=N)N)NC(=O)[C@H](CCC(N)=O)NC(=O)[C@@H](CCCNC(=N)N)NC(=O)[C@H](CCCNC(=N)N)NC(=O)[C@H](CCCCN)NC(=O)[C@H](CCCCN)NC(=O)[C@H](N)CCCNC(=N)N)[C@@H](C)O)C(=O)N[C@H](CCCNC(=N)N)C(=O)N[C@@H](CC(C)C)C(=O)N[C@H](Cc1c[nH]c2ccccc12)C(N)=O [SEQ ID NO: 180, rKKRrQRRrRPTDLrLw] (H-[dR]KKR[dR]QRR[dR]RPTDL[dR]L[dW]-NH2) | 0.265 µM | 0.118 µM | 0.047 µM |
| CC(C)C[C@H](NC(=O)[C@H](CC(N)=O)NC(=O)[C@H](CC(C)C)NC(=O)[C@@H](NC(=O)[C@@H](C)NC(=O)[C@@H]1CCCN1C(=O)[C@H](CCCNC(=N)N)NC(=O)[C@@H](CCCNC(=N)N)NC(=O)[C@H](CCCNC(=N)N)NC(=O)[C@H](CCCNC(=N)N)NC(=O)[C@H](CCC(N)=O)NC(=O)[C@@H](CCCNC(=N)N)NC(=O)[C@H](CCCNC(=N)N)NC(=O)[C@H](CCCCN)NC(=O)[C@H](CCCCN)NC(=O)[C@H](N)CCCNC(=N)N)[C@@H](C)O)C(=O)N[C@H](Cc1ccccc1)C(N)=O [SEQ ID NO: 182, rKKRrQRRrRPaTLNLf] (H-[dR]KKR[dR]QRR[dR]RP[dA]TLNL[dF]-NH2) | 1.68 µM | 0.168 µM | 0.0594 µM |
| CC(C)C[C@H](NC(=O)[C@H](CC(N)=O)NC(=O)[C@H](CC(C)C)NC(=O)[C@@H](NC(=O)[C@@H](C)NC(=O)[C@@H]1CCCN1C(=O)[C@H](CCCNC(=N)N)NC(=O)[C@@H](CCCNC(=N)N)NC(=O)[C@H](CCCNC(=N)N)NC(=O)[C@H](CCC(N)=O)NC(=O)[C@@H](CCCNC(=N)N)NC(=O)[C@H](CCCNC(=N)N)NC(=O)[C@H](CCCCN)NC(=O)[C@H](CCCCN)NC(=O)[C@H](N)CCCNC(=N)N)[C@@H](C)O)C(=O)N[C@H](Cc1ccccc1)C(N)=O [SEQ ID NO: 183, rKKRrQRrRPaTLNLf] (H-[dR]KKR[dR]QR[dR]RP[dA]TLNL[dF]-NH2) | 2.59 µM | 0.427 µM | 0.199 µM |
| CC(C)C[C@H](NC(=O)[C@H](CC(N)=O)NC(=O)[C@H](CC(C)C)NC(=O)[C@@H](NC(=O)[C@@H](C)NC(=O)[C@@H]1CCCN1C(=O)[C@H](CCCNC(=N)N)NC(=O)[C@H](CCCCN)NC(=O)[C@@H](CCCNC(=N)N)NC(=O)[C@H](CCCNC(=N)N)NC(=O)[C@H](CCC(N)=O)NC(=O)[C@@H](CCCNC(=N)N)NC(=O)[C@H](CCCNC(=N)N)NC(=O)[C@H](CCCCN)NC(=O)[C@H](CCCCN)NC(=O)[C@H](N)CCCNC(=N)N)[C@@H](C)O)C(=O)N[C@H](Cc1ccccc1)C(N)=O [SEQ ID NO: 184, rKKRrQRrKRPaTLNLf] (H-[dR]KKR[dR]QR[dR]KRP[dA]TLNL[dF]-NH2) | 2.43 µM | 0.206 µM | 0.129 µM |

Second part, the compound after the results:

| IC50 [1] | IC50 [2] | IC50 [3] | SMILES |
| --- | --- | --- | --- |
| 0.355 µM | 0.0872 µM | 0.0454 µM | CC(C)C[C@H](NC(=O)[C@H](CC(=O)O)NC(=O)[C@@H](NC(=O)[C@@H]1CCCN1C(=O)[C@H](CCCNC(=N)N)NC(=O)[C@@H](CCCCN)NC(=O)[C@@H]1CCCN1C(=O)[C@H](CCCNC(=N)N)NC(=O)[C@@H](CCCNC(=N)N)NC(=O)[C@H](CCCNC(=N)N)NC(=O)[C@H](CCCNC(=N)N)NC(=O)[C@H](CCC(N)=O)NC(=O)[C@@H](CCCNC(=N)N)NC(=O)[C@H](CCCNC(=N)N)NC(=O)[C@H](CCCCN)NC(=O)[C@H](CCCCN)NC(=O)[C@H](N)CCCNC(=N)N)[C@@H](C)O)C(=O)N[C@@H](CC(N)=O)C(=O)N[C@@H](CC(C)C)C(=O)N[C@H](Cc1ccccc1)C(N)=O [SEQ ID NO: 177, rKKRrQRRrRPkRPTDLNLf] (H-[dR]KKR[dR]QRR[dR]RP[dK]RPTDLNL[dF]-NH2) |
| 0.329 µM | 0.109 µM | 0.0304 µM | CC(C)C[C@H](NC(=O)[C@@H](NC(=O)[C@@H](NC(=O)[C@@H]1CCCN1C(=O)[C@H](CCCNC(=N)N)NC(=O)[C@@H](CCCNC(=N)N)NC(=O)[C@H](CCCNC(=N)N)NC(=O)[C@H](CCCNC(=N)N)NC(=O)[C@H](CCC(N)=O)NC(=O)[C@@H](CCCNC(=N)N)NC(=O)[C@H](CCCNC(=N)N)NC(=O)[C@H](CCCCN)NC(=O)[C@H](CCCCN)NC(=O)[C@H](N)CCCNC(=N)N)[C@@H](C)O)[C@@H](C)O)C(=O)N[C@H](CCCNC(=N)N)C(=O)N[C@@H](CC(C)C)C(=O)N[C@H](Cc1c[nH]c2ccccc12)C(N)=O [SEQ ID NO: 178, rKKRrQRRrRPTTLrLw] (H-[dR]KKR[dR]QRR[dR]RPTTL[dR]L[dW]-NH2) |
| 0.249 µM | 0.122 µM | 0.0457 µM | CC(C)C[C@H](NC(=O)[C@@H](NC(=O)[C@@H](NC(=O)[C@@H]1CCCN1C(=O)[C@H](CCCNC(=N)N)NC(=O)[C@@H](CCCNC(=N)N)NC(=O)[C@H](CCCNC(=N)N)NC(=O)[C@H](CCC(N)=O)NC(=O)[C@@H](CCCNC(=N)N)NC(=O)[C@H](CCCNC(=N)N)NC(=O)[C@H](CCCCN)NC(=O)[C@H](CCCCN)NC(=O)[C@H](N)CCCNC(=N)N)[C@@H](C)O)[C@@H](C)O)C(=O)N[C@H](CCCNC(=N)N)C(=O)N[C@@H](CC(C)C)C(=O)N[C@H](Cc1c[nH]c2ccccc12)C(N)=O [SEQ ID NO: 179, rKKRrQRrRPTTLrLw] (H-[dR]KKR[dR]QR[dR]RPTTL[dR]L[dW]-NH2) |
| 0.294 µM | 0.16 µM | 0.0476 µM | CC(C)C[C@H](NC(=O)[C@H](CC(=O)O)NC(=O)[C@@H](NC(=O)[C@@H]1CCCN1C(=O)[C@H](CCCNC(=N)N)NC(=O)[C@@H](CCCNC(=N)N)NC(=O)[C@H](CCCNC(=N)N)NC(=O)[C@H](CCC(N)=O)NC(=O)[C@@H](CCCNC(=N)N)NC(=O)[C@H](CCCNC(=N)N)NC(=O)[C@H](CCCCN)NC(=O)[C@H](CCCCN)NC(=O)[C@H](N)CCCNC(=N)N)[C@@H](C)O)C(=O)N[C@H](CCCNC(=N)N)C(=O)N[C@@H](CC(C)C)C(=O)N[C@H](Cc1c[nH]c2ccccc12)C(N)=O [SEQ ID NO: 181, rKKRrQRrRPTDLrLw] (H-[dR]KKR[dR]QR[dR]RPTDL[dR]L[dW]-NH2) |
| 0.766 µM | 0.0721 µM | 0.0355 µM | CC(C)C[C@H](NC(=O)[C@H](CC(N)=O)NC(=O)[C@H](CC(C)C)NC(=O)[C@@H](NC(=O)[C@@H](CO)NC(=O)[C@@H]1CCCN1C(=O)[C@H](CCCNC(=N)N)NC(=O)[C@@H](CCCCN)NC(=O)[C@@H]1CCCN1C(=O)[C@H](CCCNC(=N)N)NC(=O)[C@@H](CCCNC(=N)N)NC(=O)[C@H](CCCNC(=N)N)NC(=O)[C@H](CCCNC(=N)N)NC(=O)[C@H](CCC(N)=O)NC(=O)[C@@H](CCCNC(=N)N)NC(=O)[C@H](CCCNC(=N)N)NC(=O)[C@H](CCCCN)NC(=O)[C@H](CCCCN)NC(=O)[C@H](N)CCCNC(=N)N)[C@@H](C)O)C(=O)N[C@H](Cc1ccccc1)C(N)=O [SEQ ID NO: 185, rKKRrQRRrRPkRPsTLNLf] (H-[dR]KKR[dR]QRR[dR]RP[dK]RP[dS]TLNL[dF]-NH2) |
